“And” between values parts separate entries of the source, which are not always exact repeats. Identical values can stand only once. Inconclusive results and toxic doses are left out.
Tested on: CD2F1 mice, L1210 leukemia ip, survival T/C
Experiment: NCI In Vivo Anticancer Drug Screen. Data for tumor model L1210 Leukemia (intraperitoneal) in CD2F1 (CDF1) mice
Details: higher = longer survival
Summary of the method: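 Tumor-bearing mice (transplanted tumor) were split into treated and vehicle control groups, and the measured endpoint of each treated group was divided by that of its vehicle controls.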

[1] = endpoint: mean survival time, dose: 100.0 mg/kg/injection, schedule: Q01DX009 (ip), vehicle: saline with Tween-80
[2] = endpoint: mean survival time, dose: 200.0 mg/kg/injection, schedule: Q01DX009 (ip), vehicle: saline with Tween-80
[3] = endpoint: mean survival time, dose: 400.0 mg/kg/injection, schedule: Q01DX009 (ip), vehicle: saline with Tween-80
[4] = endpoint: mean survival time, dose: 100.0 mg/kg/injection, schedule: Q04DX003 (ip), vehicle: saline with Tween-80
[5] = endpoint: mean survival time, dose: 200.0 mg/kg/injection, schedule: Q04DX003 (ip), vehicle: saline with Tween-80
[6] = endpoint: mean survival time, dose: 400.0 mg/kg/injection, schedule: Q04DX003 (ip), vehicle: saline with Tween-80

Compound: BrC1CC(Br)c2c1c1c(c3c2C(Br)CC3Br)C(Br)CC1Br (configuration not stated)
- T/C (endpoint: mean survival time, dose: 12.5 mg/kg/injection, schedule: Q01DX009 (ip), vehicle: saline with Tween-80): 100 % of control and 105 % of control
- T/C (endpoint: mean survival time, dose: 25.0 mg/kg/injection, schedule: Q01DX009 (ip), vehicle: saline with Tween-80): 102 % of control and 104 % of control
- T/C (endpoint: mean survival time, dose: 50.0 mg/kg/injection, schedule: Q01DX009 (ip), vehicle: saline with Tween-80): 104 % of control and 105 % of control
- T/C [1]: 97 % of control and 108 % of control
- T/C [2]: 114 % of control and 105 % of control
- T/C [3]: 104 % of control and 105 % of control

Compound: CC(C)(C)C1C=Nn2c(=O)n(-c3ccccc3)c(=O)n21 (configuration not stated)
- T/C (endpoint: mean survival time, dose: 12.5 mg/kg/injection, schedule: Q01DX009 (ip), vehicle: other): 100 % of control
- T/C (endpoint: mean survival time, dose: 25.0 mg/kg/injection, schedule: Q01DX009 (ip), vehicle: other): 94 % of control
- T/C (endpoint: mean survival time, dose: 50.0 mg/kg/injection, schedule: Q01DX009 (ip), vehicle: other): 101 % of control
- T/C (endpoint: mean survival time, dose: 100.0 mg/kg/injection, schedule: Q01DX009 (ip), vehicle: other): 100 % of control
- T/C (endpoint: mean survival time, dose: 200.0 mg/kg/injection, schedule: Q01DX009 (ip), vehicle: other): 99 % of control

Compound: CC(=O)OC1CC(C)CCC1C(C)C (configuration not stated)
- T/C [4]: 113 % of control
- T/C [5]: 106 % of control

Compound: Cn1c(=O)c2c(nc(Cl)n2Cc2ccccc2)n(C)c1=O
- T/C (endpoint: mean survival time, dose: 12.5 mg/kg/injection, schedule: Q01DX005 (ip), vehicle: saline with Tween-80): 93 % of control
- T/C (endpoint: mean survival time, dose: 25.0 mg/kg/injection, schedule: Q01DX005 (ip), vehicle: saline with Tween-80): 88 % of control
- T/C (endpoint: mean survival time, dose: 50.0 mg/kg/injection, schedule: Q01DX005 (ip), vehicle: saline with Tween-80): 87 % of control
- T/C (endpoint: mean survival time, dose: 100.0 mg/kg/injection, schedule: Q01DX005 (ip), vehicle: saline with Tween-80): 93 % of control

Compound: Cc1ccc(S(=O)(=O)N2CCC2)cc1
- T/C [1]: 98 % of control
- T/C [4]: 100 % of control
- T/C [2]: 102 % of control
- T/C [5]: 100 % of control
- T/C [3]: 96 % of control
- T/C [6]: 97 % of control

Compound: O=C(CCOP(=O)(N1CC1)N1CC1)OCc1ccccc1
- T/C (endpoint: mean survival time, dose: 2.0 mg/kg/injection, schedule: Q01DX009 (ip), vehicle: water): 101 % of control
- T/C (endpoint: mean survival time, dose: 3.9 mg/kg/injection, schedule: Q01DX001 (ip), vehicle: Klucel (hydroxypropylcellulose) (HPC)): 89 % of control
- T/C (endpoint: mean survival time, dose: 4.0 mg/kg/injection, schedule: Q01DX009 (ip), vehicle: water): 98 % of control
- T/C (endpoint: mean survival time, dose: 7.8 mg/kg/injection, schedule: Q01DX001 (ip), vehicle: Klucel (hydroxypropylcellulose) (HPC)): 102 % of control
- T/C (endpoint: mean survival time, dose: 8.0 mg/kg/injection, schedule: Q01DX009 (ip), vehicle: water): 104 % of control
- T/C (endpoint: mean survival time, dose: 15.6 mg/kg/injection, schedule: Q01DX001 (ip), vehicle: Klucel (hydroxypropylcellulose) (HPC)): 98 % of control
- T/C (endpoint: mean survival time, dose: 16.0 mg/kg/injection, schedule: Q01DX009 (ip), vehicle: water): 106 % of control
- T/C (endpoint: mean survival time, dose: 31.2 mg/kg/injection, schedule: Q01DX001 (ip), vehicle: Klucel (hydroxypropylcellulose) (HPC)): 88 % of control
- T/C (endpoint: mean survival time, dose: 32.0 mg/kg/injection, schedule: Q01DX009 (ip), vehicle: water): 118 % of control

Compound: O=c1c2ccccc2nc2c3ccccc3nnn12
- T/C (endpoint: mean survival time, dose: 50.0 mg/kg/injection, schedule: Q04DX002 (ip), vehicle: saline with Tween-80): 98 % of control
- T/C (endpoint: mean survival time, dose: 100.0 mg/kg/injection, schedule: Q04DX002 (ip), vehicle: saline with Tween-80): 120 % of control
- T/C (endpoint: mean survival time, dose: 200.0 mg/kg/injection, schedule: Q04DX002 (ip), vehicle: saline with Tween-80): 91 % of control

Compound: O=C(O)Cc1c[nH]c2ccc(O)cc12
- T/C [1]: 98 % of control
- T/C [4]: 105 % of control
- T/C [2]: 96 % of control
- T/C [5]: 100 % of control
- T/C [3]: 95 % of control
- T/C [6]: 100 % of control

Compound: CCOC(=O)C(C)C1(O)CCCCC1 (configuration not stated)
- T/C [4]: 101 % of control
- T/C [5]: 101 % of control
- T/C [6]: 92 % of control

Compound: CCS(=O)(=O)Nc1ccc(Nc2c3ccccc3nc3ccccc23)c(OC)c1
- T/C (endpoint: mean survival time, dose: 5.0 mg/kg/injection, schedule: Q01DX009 (ip), vehicle: saline): 156 % of control

Compound: CC([NH-])C([NH-])O.[Br][Pt+2][Br] (configuration not stated)
- T/C (endpoint: mean survival time, dose: 25.0 mg/kg/injection, schedule: Q04DX003 (ip), vehicle: saline with Tween-80): 169 % of control

Compound: CN(Cc1cnc2nc(N)nc(N)c2n1)c1ccc(C(=O)NC(CCP(=O)(O)O)P(=O)(O)O)cc1 (configuration not stated)
- T/C (endpoint: median survival time, dose: 0.38 mg/kg/injection, schedule: Q01DX009 (ip), vehicle: saline): 101 % of control
- T/C (endpoint: median survival time, dose: 0.75 mg/kg/injection, schedule: Q01DX009 (ip), vehicle: saline): 101 % of control
- T/C (endpoint: median survival time, dose: 1.5 mg/kg/injection, schedule: Q01DX009 (ip), vehicle: saline): 98 % of control
- T/C (endpoint: median survival time, dose: 3.0 mg/kg/injection, schedule: Q01DX009 (ip), vehicle: saline): 102 % of control
- T/C (endpoint: median survival time, dose: 6.0 mg/kg/injection, schedule: Q01DX009 (ip), vehicle: saline): 102 % of control
- T/C (endpoint: median survival time, dose: 12.0 mg/kg/injection, schedule: Q01DX009 (ip), vehicle: saline): 101 % of control
